Among the data in US9067926B2, “Fluoromethyl-5,6-dihydro-4H-[1,3]OXAZINES” (F. Hoffmann-La Roche AG, priority 2012, dated 2015) are IC50, response vs control in vivo and efflux ratio values, retold here.

The target of one series is T1, CYP2D6 (Homo sapiens, UniProt P10635).
T1 construct: 0.2 mg/ml pooled human liver microsomes; from tissue; host or cells: pooled human liver microsomes
The experiment in a line: CYP inhibition assay, CYP2D6. It counts as in vitro ADME. Conditions: pooled human liver microsomes, dextromethorphan substrate; read-out: CYP IC50 2D6. How it is done: Inhibition of cytochromes P450 (CYPs) 2C9, 2D6 and 3A4 was assessed using human liver microsomes and CYP-selective substrate metabolism reactions. […] Quenched incubates were stored at −20° C. for at least 1 hour before centrifugation (20,000×g, 20 minutes). Supernatants were removed and diluted 1:1 with water prior to analysis using a RapidFire sample injector system and API4000 mass spectrometer. Peak areas for substrate, metabolite and stable-labelled metabolite standard were determined using MS/MS. The peak area ratios between the metabolite generated by the enzymatic reaction and the internal standard were used in subsequent calculations. The percentage of (DMSO) control activity was calculated for each incubate and IC50 values estimated by non-linear regression. Sulfaphenazole, quinidine or ketoconazole were tested in each CYP2C9, CYP2D6 or CYP3A4 inhibition experiment, respectively, to ensure assay sensitivity and reproducibility.
For orientation: Liver microsomes are a subcellular fraction often used to study metabolism.

The next series relates to Aβ40 in brain. The experiment in a line: In vivo inhibition of Aβ40 in brain of wild-type mice. Conditions: Mus musculus, po; 10 mg/kg p.o., brain Aβ40 after 4 h, female C57Bl/6J mice; read-out: in vivo effect, Percentage of control @ 10 mg/kg p.o. As for the experimental part:
In Vivo Experiments. […] The test compound was dissolved in 5% EtOH, 10% Solutol and was applied per os at 10 ml/kg. After 4 h the animals were sacrificed and brain and plasma were collected. The brain was cut into halves and immediately frozen on dry ice. Brain was used for measurement of Aβ40 and plasma was used for determination of compound exposure. […] Brain tissue was homogenized in 2% DEA buffer in a Roche […] (20'', 4000 rpm) and subsequently centrifuged for 1 h at 100'000 g. DEA was reduced to 0.2% in 50 mM NaCl and one half of the DEA lysate was passed over an Oasis Solid Phase extraction plate (Waters; Cat.Nr. 186000679) which had been activated with MeOH and equilibrated in dH2O (1 ml each). After washes in 10% and 30% MeOH (1 ml each) the AP-peptides were eluted in 0.8 ml 2% NH4OH in 90% MeOH. […] Aβ40 was determined by an AlphaLISA assay (Perkin Elmer). In a white 96well half-area microplate (Perkin Elmer Cat.Nr. 6005561), 20 μl of the reconstituted sample were mixed with 5 μl biotinylated BAP-24 (specific for C-terminus of Aβ40 (Brockhaus, M.; Grunberg, J.; Rohrig, S.; Loetscher, H.; Wittenburg, N.; Baumeister, R.; Jacobsen, […]. Caspase-mediated cleavage is not required for the activity of presenilins in amyloidogenesis and NOTCH signaling. […] The mix was incubated for 1 h at RT in the dark. Then 20 μl Streptavin-coated Donor Beads (Perkin Elmer Cat. Nr. 6760002, final dilution 1:125) were added and this final mix was incubated in the dark for another 30 min at r.t. before RFU was measured in an AlphaScreen Reader(Perkin Elmer Envision 2104).

Another series addresses T2, P-gp (human MDR1) (Homo sapiens, UniProt P08183).
T2 construct: host or cells: LLC-PK1 (porcine kidney epithelial cells)
The experiment in a line: P-gp (P-Glycoprotein) bidirectional transcellular transport assay, LLC-PK1 and L-MDR1 cells. In kind it is in vitro ADME. The note with it: LLC-PK1 cells expressing human MDR1, PappBA/PappAB. As for the experimental part:
P-gp (P-Glycoprotein) Assay
Cell Lines and Vesicles Used for Transport Experiments
The MDR1 (human multidrug resistance protein 1) transfected cell lines were obtained from Dr. A. Schinkel, The Netherlands Cancer Institute (Amsterdam, The Netherlands). All cell lines were cultured on permeable inserts (Costar, 0.33 cm^2 area, pore size 3.0 μm, low density) at 4.5·10^5 cells/cm^2. Transport measurements were performed at day 4 after seeding. Tightness of the cell monolayer was controlled via the permeability of the extracellular marker lucifer yellow (10 μM).
In Vitro Transport Experiments
Bidirectional transcellular transport using LLC-PK1 and L-MDR1 LLC-PK1 cells exogenously expressing the human MDR1)
The method used for transport experiments were performed on a TECAN automated liquid handling system. Briefly, medium was removed from all compartments and the medium of receiver side was replaced with culture medium. The trans-cellular transport measurements were initiated by adding the substrate together with extracellular marker lucifer yellow to the donor side. Inhibitors were added to both sides (1 μM elacridar). […] The plates were incubated at 37° C. and 5% CO2 in a Liconic incubator. Samples were taken from the donor and the opposite (acceptor) side after 2 hours incubation. Concentrations of substrate in both compartments were determined by scintillation counting (digoxin) or by LC-MS/MS. […] In each experiment 3 different inserts were used for each condition and a mean was calculated.
Bidirectional transcellular transport using LLC-PK1 and L-MDR1 cells
For the transcellular transport, the following equation was used for data evaluation: […]
Where Papp, A, C0, and dQ/dt represent the apparent permeability, the filter surface area, the initial concentration, and the amount transported per time period, respectively.
Transport efflux ratios (ER) were calculated as follows: […]
Where PappBA is the permeability value in the basolateral-to-apical direction, and PappAB the permeability value in the apical-to-basolateral direction. Papp were not corrected for flux of the extracellular marker lucifer yellow, which was used to assess the quality of the cell mono layers.

SMILES strings stand for the structures.

T2 sequence (P08183 whole entry): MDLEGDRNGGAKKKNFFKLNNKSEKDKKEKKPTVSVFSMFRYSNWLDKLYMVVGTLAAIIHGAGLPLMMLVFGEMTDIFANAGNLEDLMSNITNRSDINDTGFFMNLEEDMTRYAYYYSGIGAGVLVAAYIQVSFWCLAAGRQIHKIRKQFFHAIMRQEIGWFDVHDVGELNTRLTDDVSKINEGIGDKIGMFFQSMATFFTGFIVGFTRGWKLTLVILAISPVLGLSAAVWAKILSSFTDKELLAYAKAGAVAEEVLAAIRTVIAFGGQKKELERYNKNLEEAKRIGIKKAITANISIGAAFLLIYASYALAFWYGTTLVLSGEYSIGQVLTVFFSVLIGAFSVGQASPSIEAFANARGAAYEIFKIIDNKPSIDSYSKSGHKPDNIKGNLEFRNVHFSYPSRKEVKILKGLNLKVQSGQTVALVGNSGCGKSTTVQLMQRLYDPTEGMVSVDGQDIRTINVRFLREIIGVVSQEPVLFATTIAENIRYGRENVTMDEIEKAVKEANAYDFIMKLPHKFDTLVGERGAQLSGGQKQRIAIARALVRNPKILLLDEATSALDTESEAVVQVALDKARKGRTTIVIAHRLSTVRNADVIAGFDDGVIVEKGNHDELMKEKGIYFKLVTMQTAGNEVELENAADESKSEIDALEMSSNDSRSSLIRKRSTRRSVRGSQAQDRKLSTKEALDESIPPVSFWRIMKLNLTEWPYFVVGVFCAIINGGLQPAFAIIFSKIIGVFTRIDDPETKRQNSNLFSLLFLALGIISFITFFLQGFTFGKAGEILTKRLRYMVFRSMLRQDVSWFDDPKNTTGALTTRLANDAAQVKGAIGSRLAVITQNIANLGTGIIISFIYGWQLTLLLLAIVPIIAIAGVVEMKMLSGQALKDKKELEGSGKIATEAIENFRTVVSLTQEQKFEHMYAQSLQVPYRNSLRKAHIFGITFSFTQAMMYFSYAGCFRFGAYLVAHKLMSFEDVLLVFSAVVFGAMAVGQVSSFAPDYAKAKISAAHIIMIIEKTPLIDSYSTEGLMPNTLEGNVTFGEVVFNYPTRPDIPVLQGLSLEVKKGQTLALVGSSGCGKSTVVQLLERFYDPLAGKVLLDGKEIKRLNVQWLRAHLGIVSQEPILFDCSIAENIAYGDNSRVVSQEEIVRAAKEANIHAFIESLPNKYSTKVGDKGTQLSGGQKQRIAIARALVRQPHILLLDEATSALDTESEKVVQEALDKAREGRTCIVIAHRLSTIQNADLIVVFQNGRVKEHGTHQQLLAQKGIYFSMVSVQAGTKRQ
T1 sequence (P10635 whole entry): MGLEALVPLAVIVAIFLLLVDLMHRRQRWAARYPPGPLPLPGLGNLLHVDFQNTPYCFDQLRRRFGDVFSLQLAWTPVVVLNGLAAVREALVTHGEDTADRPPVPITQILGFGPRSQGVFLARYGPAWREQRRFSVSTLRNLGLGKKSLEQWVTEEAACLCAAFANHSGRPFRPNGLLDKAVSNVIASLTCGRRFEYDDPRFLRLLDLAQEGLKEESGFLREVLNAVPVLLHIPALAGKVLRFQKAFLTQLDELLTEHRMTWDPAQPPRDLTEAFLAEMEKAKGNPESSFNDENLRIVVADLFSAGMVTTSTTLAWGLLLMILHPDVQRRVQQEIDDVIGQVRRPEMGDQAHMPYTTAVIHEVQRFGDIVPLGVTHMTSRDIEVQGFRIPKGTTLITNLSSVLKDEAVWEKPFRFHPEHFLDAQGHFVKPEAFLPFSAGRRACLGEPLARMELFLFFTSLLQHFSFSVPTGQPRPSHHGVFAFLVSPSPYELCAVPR

The term IC50 denotes the concentration needed to halve the response being measured. A word on the efflux ratio: it is the permeability from basolateral to apical divided by that in the opposite direction, in the common usage. In the case of `C[C@@]1(c2cc(NC(=O)c3ccc(OCF)cn3)ccc2F)C[C@@H](C(F)(F)F)OC(N)=N1` [Example 11, N-(3-((4S,6S)-2-Amino-4-methyl-6-(trifluoromethyl)-5,6-dihydro-4H-1,3-oxazin-4-yl)-4-fluorophenyl)-5-(fluoromethoxy)picolinamide], the half-inhibitory concentration (IC50) at CYP2D6 was 1.6 µM. In addition, the response vs control in vivo at 10 mg/kg with Aβ40 in brain was 87%. On P-gp (human MDR1), the efflux ratio at 2 h worked out at 2.3.
For `NC1=N[C@](CF)(c2cc(NC(=O)c3ccc(OCF)cn3)ccc2F)C[C@@H](C(F)(F)F)O1` [Example 35, N-(3-((4S,6S)-2-Amino-4-(fluoromethyl)-6-(trifluoromethyl)-5,6-dihydro-4H-1,3-oxazin-4-yl)-4-fluorophenyl)-5-(fluoromethoxy)picolinamide] the same measures were 5.2 µM, 74% and 1.5.
In the case of `C[C@@]1(c2cc(NC(=O)c3ccc(Cl)cn3)ccc2F)C[C@@H](C(F)(F)F)OC(N)=N1` [Example 2, N-(3-((4S,6S)-2-amino-4-methyl-6-(trifluoromethyl)-5,6-dihydro-4H-1,3-oxazin-4-yl)-4-fluorophenyl)-5-chloropicolinamide], the IC50 on CYP2D6 was found to be 3.9 µM. Moreover, the response vs control in vivo at 10 mg/kg in the series with Aβ40 in brain was 93%. For the same molecule, the efflux ratio at 2 h on P-gp (human MDR1) turned out to be 1.82.
Consider `CC#CCOc1cnc(C(=O)Nc2ccc(F)c([C@]3(C)C[C@@H](C(F)(F)F)OC(N)=N3)c2)cn1` [Example 22, N-(3-((4S,6S)-2-Amino-4-methyl-6-(trifluoromethyl)-5,6-dihydro-4H-1,3-oxazin-4-yl)-4-fluorophenyl)-5-(but-2-ynyloxy)pyrazine-2-carboxamide], for which the IC50 at CYP2D6 turned out to be 13 µM. Moreover, the response vs control in vivo at 10 mg/kg in the series with Aβ40 in brain turned out to be 83%. The efflux ratio at 2 h on P-gp (human MDR1) was 2.63.
